Measured values as given in patent publication US12115147B2, “Formulations and methods related to eye irritation” (Lebrun Labs LLC, priority 2020, dated 2024).
Where two headings read alike, the source gives them in different places.

Experiments:
[1] = no antioxidants, predicted GHS class, cited from earlier work
rabbit eye = details: cited from earlier work
[2] = pH 6.36
[3] = OS2 (OPTISAFE2), OPTISAFE formulation with antioxidants; details: for OS2 Cons: majority prediction of the triplicate assays; for 0S2 R1 / OS2 R1: repeat 1, with antioxidants; for 0S2 R1 / OS2 R3 / OS2 R1: predicted GHS class; for OS2 R3: repeat 3, with antioxidants
[4] = OPTISAFE in vitro ocular irritation test, original formulation without antioxidants; details: for OPTISAFE (no antioxidant) Score AVG: ROS/CL chemicals; for OPTISAFE (no antioxidant) Score AVG / OPTISAFE Score AVG: triplicate assays; for OPTISAFE Score AVG: original formulation without antioxidants
Description: Surfactants were diluted.
Next a study was conducted to determine if the addition of antioxidants changes the reliability (repeatability) of the test method. After this, a large study determined if antioxidants specifically reduce the false positive rate without impacting the true positive rate and the true negative rate and then all prior test chemicals were rested with antioxidants in triplicate.

[5] = Table 7B, consensus of past application domain study
[6] = Table 7B, based on the Draize data
[7] = Table 7A, consensus of past transferability study
[8] = Table 7A, based on the Draize data

Compound: O=C(Cl)c1c(Cl)cccc1Cl [2,6-Dichlorobenzoyl chloride]
- OS Cons [1, 5]: 1
- In vivo GHS (rabbit eye; [6]): 2A (2A (reversal by 7 days))
- OS2 Cons [2]: 1
- OS2 R1 [2]: 1
- OS2 R3 [2]: 1

Compound: CC(C)CO [Isobutanol]
- OS Cons [1, 7]: 1
- In vivo GHS (rabbit eye; [8]): 2A (2A (reversal by 7 days))
- 0S2 R1 [2]: 1
- OS2 Cons [2]: 1
- OS2 R3 [2]: 1

Compound: OCc1cccc(Oc2ccccc2)c1 [3-Phenoxybenzyl alcohol]
- OS Cons [1, 5]: 2
- OS2 Cons [2]: 2
- OS2 R1 [2]: 2
- OS2 R3 [2]: 2

Compound: O=C(O)CCSSCCC(=O)O [3,3-Dithiodipropionic acid]
- OS2 Cons ([3]; Table 7A): 1
- 0S2 R1 ([3]; Table 7A): 1
- OS2 R3 ([3]; Table 7A): 1

Compound: O=C=Nc1ccc(Cl)c(Cl)c1 [3,4-Dichlorophenyl isocyanate]
- OS2 Cons ([3]; Table 7A): 1
- 0S2 R1 ([3]; Table 7A): 1
- OS2 R3 ([3]; Table 7A): 1
- OS Cons [1, 7]: 1
- In vivo GHS (rabbit eye; [8]): 1 (1 (no reversal by 21 days))

Compound: CCOCCOCCO [2-(2-Ethoxyethoxy)ethanol]
- OS Cons [1, 5]: 2
- OS2 (with antioxidant) Score AVG [2]: 12.0 ± 0.3
- OPTISAFE (no antioxidant) Score AVG [4]: 21.7 ± 0.3

Compound: C=CCO [Allyl alcohol]
- OS2 Cons ([3]; Table 7B): 1
- OS2 R1 ([3]; Table 7B): 1
- OS2 R3 ([3]; Table 7B): 1
- OS Cons [1, 5]: 1
- In vivo GHS (rabbit eye; [6]): 2A (2A (reversal by 7 days))

Compound: CCOC(C)=O [Ethyl acetate]
- OS2 Cons [2]: 2
- OS2 R1 [2]: 2
- OS2 R3 [2]: 2
- OS2 Score AVG [2]: 25.6 ± 2.4
- OPTISAFE Score AVG [4]: 23.9 ± 2.0

Compound: CCCCCCBr [n-Hexyl bromide]
- known ocular irritancy (FIG. 4 legend) (rabbit eye; rabbit, in vivo): Nonirritants

Compound: CC(C)Br [iso-Propyl bromide]
- OPTISAFE prediction without the antioxidant mixture [4]: overpredicted

Compound: Sodium lauroyl sarcosinate [Sodium lauroyl sarcosinate (10%)]
- OS2 result, expanded surfactant study ([3]; due to assay inhibition): CNM

Compound: C=C1C2CCC(C2)C1(C)C (centres unmarked) [Camphene]
- 0S2 R1 [2]: 2
- OS2 Cons [2]: 2
- OS2 R3 [2]: 2

Compound: O.O.O.O.[Na+].[O-]B1OO1 [Sodium perborate tetrahydrate]
- OS2 Cons ([3]; Table 7B): 1
- OS2 R1 ([3]; Table 7B): 1
- OS2 R3 ([3]; Table 7B): 1

Compound: N#CCCCl [3-Chloropropionitrile]
- In vivo GHS (rabbit eye; [6]): 2B (2B (reversal by 14 days))

Compound: O=C([O-])CCl.[Na+] [Sodium chloroacetate]
- In vivo GHS (rabbit eye; [8]): 2B (2B (reversal by 14 days))

Compound: CCCCCCCCCCCC(=O)O [Lauric acid]
- OS Cons [1, 5]: 1
- In vivo GHS (rabbit eye; [6]): 1 (1 (no reversal by 21 days))
- OS2 Cons [2]: 1
- OS2 R1 [2]: 1
- OS2 R3 [2]: 1

Compound: O=C(Nc1ccc(Cl)cc1)Nc1ccc(Cl)c(Cl)c1 [Triclocarban]
- OS2 Cons ([3]; Table 7B): CNM
- OS2 R1 ([3]; Table 7B): CNM
- OS2 R3 ([3]; Table 7B): CNM
- OS Cons [1, 5]: CNM

Compound: CCCCC(CC)COC(=O)CC(C(=O)OCC(CC)CCCC)S(=O)(=O)[O-].[Na+] (centres unmarked) [Butanedioic acid, sulfo-, 1,4-bis(2-ethylhexyl) ester, sodium salt]
- OS Cons [1, 5]: 2
- In vivo GHS (rabbit eye; [6]): 1 (1 (no reversal by 21 days))
- OS2 Cons [2]: 2
- OS2 R1 [2]: 2
- OS2 R3 [2]: 2

Compound: CCN(CC)C(=O)c1cccc(C)c1 [n,n-Diethyl-m-toluamide]
- OS2 Cons ([3]; Table 7B): 1
- OS2 R1 ([3]; Table 7B): 1
- OS2 R3 ([3]; Table 7B): 1
- OS Cons [1, 5]: 2
- In vivo GHS (rabbit eye; [6]): 2B (2B (reversal by 14 days))
- known ocular irritancy (FIG. 4 legend) (rabbit eye; rabbit, in vivo): Irritants

Compound: CC(C)(O)CCC(C)(C)O
- OS2 Cons ([3]; Table 7B): 1
- OS2 R1 ([3]; Table 7B): 2
- OS2 R3 ([3]; Table 7B): 1

Compound: O=C1CCCO1 [gamma-Butyrolactone]
- OS2 Cons ([3]; Table 7B): 2
- OS2 R1 ([3]; Table 7B): 2
- OS2 R3 ([3]; Table 7B): 2
- OS Cons [1, 5]: 2
- In vivo GHS (rabbit eye; [6]): 2A (2A (reversal by 7 days))

Compound: COC(=O)CC#N [Methyl cyanoacetate]
- OS Cons [1, 7]: 1
- In vivo GHS (rabbit eye; [8]): 2A (2A (reversal by 7 days))
- 0S2 R1 [2]: 1
- OS2 Cons [2]: 1
- OS2 R3 [2]: 1

Compound: OC1CCCC1 [Cyclopentanol]
- OS Cons [1, 5]: 1
- In vivo GHS (rabbit eye; [6]): 2A (2A (reversal by 7 days))
- OS2 Cons [2]: 1
- OS2 R1 [2]: 1
- OS2 R3 [2]: 1

Compound: CC(C)C=O [Isobutyraldehyde]
- In vivo GHS (rabbit eye; rabbit, in vivo): 2B (key: NC (not classified as an irritant); 2A (reversal by 7 days); 2B (reversal by 14 days); 1 (no reversal by 21 days))
- OS2 Cons [2]: 1
- OS2 R3 [2]: 1

Compound: CCOC(=O)C(C)C(C)=O (centres unmarked) [Ethyl-2-methyl acetoacetate]
- OS2 Cons ([3]; Table 7B): 1
- OS2 R1 ([3]; Table 7B): 1
- OS2 R3 ([3]; Table 7B): 1
- OS Cons [1, 5]: 1
- In vivo GHS (rabbit eye; [6]): 2B (2B (reversal by 14 days))

Compound: CCCCCCCCO [n-Octanol]
- OS Cons [1, 5]: 2
- In vivo GHS (rabbit eye; [6]): 2A (2A (reversal by 7 days))
- known ocular irritancy (FIG. 4 legend) (rabbit eye; rabbit, in vivo): Irritants
- OS2 Cons [2]: 2
- OS2 R1 [2]: 2
- OS2 R3 [2]: 2
- OS2 score average [2]: 19.1
- OS2 scores ranged from [2]: 16.5-22.8
- Score = Average score [2]: 19.1

Compound: C=CCCCCCCC=C [1,9-Decadiene]
- OS Cons [1, 7]: 2
- OS2 (with antioxidant) Score AVG [2]: 11.4 ± 6.4
- OPTISAFE (no antioxidant) Score AVG [4]: 22.5 ± 3.6

Compound: CC(C=O)Cc1ccc(C(C)(C)C)cc1 (centres unmarked) [Protectol PP]
- OS2 Cons ([3]; Table 7B): 1
- OS2 R1 ([3]; Table 7B): 1
- OS2 R3 ([3]; Table 7B): 1

Compound: COC(C)=O [Methyl acetate]
- OS Cons [1, 5]: 2
- In vivo GHS (rabbit eye; [6]): 2A (2A (reversal by 7 days))
- known ocular irritancy (FIG. 4 legend) (rabbit eye; rabbit, in vivo): Irritants
- OS2 Cons [2]: 2
- OS2 R1 [2]: 2
- OS2 R3 [2]: 2

Compound: CCCCCCCCCCCCCC(=O)OC(C)C [Isopropyl myristae]
- known ocular irritancy (FIG. 4 legend) (rabbit eye; rabbit, in vivo): Nonirritants

Compound: OC1CCCCC1 [Cyclohexanol]
- in vivo GHS (rabbit eye; Table 3, eye irritation class): 1 (1 (no reversal by 21 days))
- GHS (rabbit eye; Table 4): Cat. 1
- In vivo GHS (rabbit eye; [6]): 1 (1 (no reversal by 21 days))

Compound: CCCC(C)CO (centres unmarked) [2-Methyl-1-pentanol]
- In vivo GHS (rabbit eye; [8]): 2B (2B (reversal by 14 days))
- 0S2 R1 [2]: 2
- OS2 Cons [2]: 2
- OS2 R3 [2]: 2

Compound: CCCCCCCCOCCCCCCCC [Dioctyl ether]
- known ocular irritancy (FIG. 4 legend) (rabbit eye; rabbit, in vivo): Nonirritants

Compound: CC(=O)CC(=O)OC(C)C [Isopropyl acetoacetate]
- OS Cons [1, 5]: 1
- In vivo GHS (rabbit eye; [6]): 2B (2B (reversal by 14 days))
- OS2 Cons [2]: 1
- OS2 R1 [2]: 1
- OS2 R3 [2]: 1

Compound: OCCOCCOCCO [Triethylene glycol]
- OS Cons [1, 5]: 2
- OS2 (with antioxidant) Score AVG [2]: 5.1 ± 1.7
- OS2 score average [2]: 3.1
- OS2 scores ranged from [2]: 2.1-4.2
- Score = Average score [2]: 3.1
- OPTISAFE (no antioxidant) Score AVG [4]: 13.2 ± 3.5

Compound: O=P(O)(OCc1ccccc1)OCc1ccccc1 [Dibenzyl phosphate]
- OS2 Cons ([3]; Table 7A): 1
- 0S2 R1 ([3]; Table 7A): 1
- OS2 R3 ([3]; Table 7A): 1

Compound: CCCCCCCCCCCC [Dodecane]
- OS2 Score AVG [2]: 3.0 ± 2.6
- OPTISAFE Score AVG [4]: 0.9 ± 0.8

Compound: CCOCCOCC [Ethylene glycol diethyl ether]
- OS Cons [1, 5]: 2
- OS2 (with antioxidant) Score AVG [2]: 21.6 ± 2.5
- OS2 Cons [2]: 2
- OS2 R1 [2]: 2
- OS2 R3 [2]: 2
- OPTISAFE (no antioxidant) Score AVG [4]: 25.4 ± 1.8

Compound: S=C([S-])NCCNC(=S)[S-].[Mn+2] [Maneb (solid), Maneb]
- In vivo GHS (rabbit eye; rabbit, in vivo): 2B (key: NC (not classified as an irritant); 2A (reversal by 7 days); 2B (reversal by 14 days); 1 (no reversal by 21 days))

Compound: Cc1ncnc2nc[nH]c12 [6-Methyl purine]
- OS2 Cons ([3]; Table 7B): 2/1
- OS2 R1 ([3]; Table 7B): 2/1
- OS2 R3 ([3]; Table 7B): 1
- In vivo GHS (rabbit eye; [6]): 2B (2B (reversal by 14 days))

Compound: Diethylaminopropionitrile
- OS2 Cons ([3]; Table 7B): 1
- OS2 R1 ([3]; Table 7B): 2
- OS2 R3 ([3]; Table 7B): 1
- OS Cons [1, 5]: CNM
- In vivo GHS (rabbit eye; [6]): 1 (1 (no reversal by 21 days))

Compound: CC(C)O [Isopropanol]
- OS Cons [1, 5]: 2
- In vivo GHS (rabbit eye; [6]): 2A (2A (reversal by 7 days))
- OS2 Cons [2]: 2
- OS2 R1 [2]: 2
- OS2 R3 [2]: 2

Compound: CC(O)C(=O)O (centres unmarked) [Lactic Acid]
- In vivo GHS (rabbit eye; rabbit, in vivo): 1 (key: NC (not classified as an irritant); 2A (reversal by 7 days); 2B (reversal by 14 days); 1 (no reversal by 21 days))

Compound: CCCCC(CC)COC(=O)CS (centres unmarked)
- OPTISAFE prediction without the antioxidant mixture [4]: overpredicted

Compound: CCCCCCO [n-Hexanol]
- OS Cons [1, 5]: 2
- In vivo GHS (rabbit eye; [6]): 2A (2A (reversal by 7 days))
- OS2 Cons [2]: 2
- OS2 R1 [2]: 2
- OS2 R3 [2]: 1

Compound: CCCOCC(C)O (centres unmarked) [Propasol solvent P]
- OS2 Cons ([3]; Table 7A): 2
- 0S2 R1 ([3]; Table 7A): 2
- OS2 R3 ([3]; Table 7A): 2
- OS Cons [1, 7]: 2
- In vivo GHS (rabbit eye; [8]): 2A (2A (reversal by 7 days))

Compound: CC(O)CC(C)O (centres unmarked) [2,4-Pentanediol]
- OS2 Score AVG [2]: 10.2 ± 0.7
- OS2 score average [2]: 9.5
- OS2 scores ranged from [2]: 7.8-10.9
- Score = Average score [2]: 9.5
- OPTISAFE Score AVG [4]: 12.0 ± 1.4

Compound: c1c[nH]cn1 [Imidazole]
- In vivo GHS (rabbit eye; rabbit, in vivo): 1 (key: NC (not classified as an irritant); 2A (reversal by 7 days); 2B (reversal by 14 days); 1 (no reversal by 21 days))

Compound: Cc1ccc(C=S)cc1 [p-Methyl thiobenzaldehyde]
- OS Cons [1, 5]: 1
- OS2 Cons [2]: 1
- OS2 R1 [2]: 1
- OS2 R3 [2]: 1

Compound: CC(C)=O [Acetone]
- OS2 Cons ([3]; Table 7B): 2
- OS2 R1 ([3]; Table 7B): 2
- OS2 R3 ([3]; Table 7B): 2
- OS Cons [1, 5]: 2
- In vivo GHS (rabbit eye; [6]): 2A (2A (reversal by 7 days))

Compound: Nc1ncccc1O [2-Amino-3-pyridinol]
- OS Cons [1, 5]: CNM
- In vivo GHS (rabbit eye; [6]): 2A (2A (reversal by 7 days))
